According to patent US20150111864A1, “CRYSTALLINE FORM OF A BETA-LACTAMASE INHIBITOR” (Cubist Pharmaceuticals, Inc., priority 2013, published 2015):

How the values were obtained:
[1] = tested on: Pae.2863 (AmpC de-repress, clinical); assay: Standard BLI Potentiation MIC Assay in Combination with Ceftolozane; type: cell-based, Pseudomonas aeruginosa; settings: Pae.2863, AmpC de-repress, clinical; BLI at 4 μg/mL
Protocol: (§1) The experimental protocol was performed according to Clinical and Laboratory Standards Institute (CLSI) guidelines with modifications as described below (CLSI guidelines can be derived from the CLSI document M07-A9 published in January 2012: “Methods for Dilution Antimicrobial Susceptibility Tests for Bacteria That Grow Aerobically; Approved Standard-Ninth Edition”).
(§2) Frozen glycerol stocks of laboratory engineered, isogenic E. coli strains, which contain cloned β-lactamase expressing plasmids were used to streak for isolated colonies on rich, selective LB agar supplemented with 25 μg/mL tetracycline to maintain the plasmid. All strains were incubated at 37° C. for 18-24 hrs.
(§3) On the day of testing, primary cultures were started by scraping off 5-10 colonies from the TSAB plates containing clinical strains or the tetracycline supplemented LB plates containing engineered strains. The clinical strain material was suspended in ˜5 mL of cation adjusted Mueller Hinton Broth (CAMHB) in 14 mL culture tubes. The engineered strain material was suspended in CAMHB (supplemented with 25 μg/mL tetracycline) in 14 mL culture tubes. All strains were incubated at 37° C. with aeration (200 rpm) for ˜2 hrs until the optical density at 600 nm (OD600) was ≧0.1.
(§4) The two compound components of the assay were each diluted in CAMHB and added to the 96-well broth microdilution assay plates. 50 μL of the β-lactam was added to each well of the assay plate in 2-fold dilutions with final concentrations ranging from 128 to 0.13 μg/mL. 25 μL of the BLI compound was added to all wells in the broth microdilution plates at a final concentration of 4 μg/mL. Inoculum cultures were prepared by standardizing the primary cultures to OD600=0.1 and then adding 20 μL of the adjusted primary culture per 1 mL CAMHB for clinical strains or CAMHB (supplemented with tetracycline at 100 μg/mL) for engineered strains, so that the final inoculum density was ˜10^5 colony forming units per milliliter. Diluted inoculum cultures were used to inoculate 25 μL per well in 96-well broth microdilution assay plates. The final volume of each well was 100 μL and contained a β-lactam at different concentrations, a BLIcompound at 4 μg/mL concentration, the bacterial culture at an OD600 of approximately 0.001 and when necessary tetracycline at 25 μg/mL.
(§5) Plates were incubated for 18-20 hours at 37° C. with aeration (200 rpm). Following incubation, growth was confirmed visually placing plates over a viewing apparatus (stand with a mirror underneath) and then OD600 was measured using a SpectraMax 340PC384 plate reader (Molecular Devices, Sunnyvale, Calif.). Growth was defined as turbidity that could be detected with the naked eye or achieving minimum OD600 of 0.1. MIC values were defined as the lowest concentration producing no visible turbidity.

[2] = tested on: Pae.2885 (AmpC, clinical); assay: as above; type: cell-based, Pseudomonas aeruginosa; settings: Pae.2885, AmpC, clinical; BLI at 4 μg/mL
Protocol: as §1, §2, §3, §4, §5

[3] = tested on: Pae.2757 (AmpC over-expn, clinical); assay: as above; type: cell-based, Pseudomonas aeruginosa; settings: Pae.2757, AmpC over-expn, clinical; BLI at 4 μg/mL
Protocol: as §1, §2, §3, §4, §5

[4] = tested on: Eco.2845 (OXA-15, isogenic); assay: as above; type: cell-based, Escherichia coli; settings: Eco.2845, OXA-15, isogenic; BLI at 4 μg/mL
Protocol: as §1, §2, §3, §4, §5

[5] = tested on: Eco.2491 (CMY-2, clinical); assay: as above; type: cell-based, Escherichia coli; settings: Eco.2491, CMY-2, clinical; BLI at 4 μg/mL
Protocol: as §1, §2, §3, §4, §5

[6] = tested on: Eco.2843 (DHA-1, isogenic); assay: as above; type: cell-based, Escherichia coli; settings: Eco.2843, DHA-1, isogenic; BLI at 4 μg/mL
Protocol: as §1, §2, §3, §4, §5

[7] = tested on: Eco isogenic strain, β-Lactamase none; assay: Synergy MIC (sMIC) assay; type: cell-based, Escherichia coli; settings: β-Lactam none
Protocol: (§6) The synergy MIC (sMIC) assay determines the concentration of the BLI required to potentiate the activity of a fixed concentration of a β-lactam antibiotic against β-lactamase producing bacterial strains. The experimental protocol was performed according to Clinical and Laboratory Standards Institute (CLSI) guidelines with modifications as described below (CLSI guidelines can be derived from the CLSI document M07-A9 published in January 2012: “Methods for Dilution Antimicrobial Susceptibility Tests for Bacteria That Grow Aerobically; Approved Standard-Ninth Edition”). The assay wa set-up by serially diluting the BLI across 11 of the 12 wells in each row of a 96-well broth microdilution assay plate, adding the β-lactam at a fixed concentration to all wells in the assay plate, inoculating the assay plate with bacterial strains, and determining the lowest concentration of BLI required to inhibit overnight bacterial growth.
as §2
(§7) On the day of testing, primary cultures were started by scraping off 5-10 colonies from the TSAB plates containing clinical strains or the tetracycline supplemented LB plates containing engineered strains. The clinical strain material was suspended in ˜5 mL of cation adjusted Mueller Hinton Broth (CAMHB) in 14 mL culture tubes. The engineered strain material was suspended in CAMHB (supplemented with tetracycline at 25 μg/mL) in 14 mL culture tubes. All strains were incubated at 37° C. with aeration (200 rpm) for ≧2 hrs until the OD600 was ≧0.1.
(§8) The two compound components of the assay were each prepared in CAMHB and added to the 96-well broth microdilution assay plates. 50 μL of the BLI was added to each well of the assay plate in 2-fold dilutions with final concentrations ranging from 128 to 0.13 μg/mL. 25 μL of the β-lactam was added to all wells in the broth microdilution plates at a final concentration of 4 μg/mL. Inoculum cultures were prepared by standardizing the primary cultures to OD600=0.1 and then adding 20 μL of the adjusted primary culture per 1 mL CAMHB for clinical strains or CAMHB (supplemented with tetracycline at 100 μg/mL) for isogenic strains, so that the final inoculum density was ˜10^5 colony forming units per milliliter. Diluted inoculum cultures were used to inoculate 25 μL per well in 96-well broth microdilution assay plates. The final volume of each well was 100 μL and contained a BLI at different concentrations, a β-lactam at 4 μg/mL concentration, the bacterial culture at an OD600 of approximately 0.001 and when necessary tetracycline at 25 ug/mL.
as §5, with “sMIC” for “MIC”, “turbidity. […]” for “turbidity.”

[8] = tested on: Eco isogenic strain expressing CTX-M-15; assay: Synergy MIC (sMIC) assay; type: cell-based, Escherichia coli; settings: β-Lactam CXA-101 at 4 μg/mL; CTX-M-15, isogenic Eco
Protocol: as §6, §2, §7, §8
as §5, with “sMIC” for “MIC”, “turbidity. […]” for “turbidity.”

[9] = tested on: Eco isogenic strain expressing SHV-12; assay: Synergy MIC (sMIC) assay; type: cell-based, Escherichia coli; settings: β-Lactam CXA-101 at 4 μg/mL; SHV-12, isogenic Eco
Protocol: as §6, §2, §7, §8
as §5, with “sMIC” for “MIC”, “turbidity. […]” for “turbidity.”

[10] = tested on: Eco isogenic strain expressing OXA-15; assay: Synergy MIC (sMIC) assay; type: cell-based, Escherichia coli; settings: β-Lactam CXA-101 at 4 μg/mL; OXA-15, isogenic Eco
Protocol: as §6, §2, §7, §8
as §5, with “sMIC” for “MIC”, “turbidity. […]” for “turbidity.”

[11] = tested on: Eco isogenic strain expressing P99; assay: Synergy MIC (sMIC) assay; type: cell-based, Escherichia coli; settings: β-Lactam CXA-101 at 4 μg/mL
Protocol: as §6, §2, §7, §8
as §5, with “sMIC” for “MIC”, “turbidity. […]” for “turbidity.”

Cfr.568 (AmpC, clinical) = assay: Standard BLI Potentiation MIC Assay in Combination with Ceftolozane; type: cell-based, Citrobacter spp; settings: Cfr.568, AmpC, clinical; BLI at 4 μg/mL
Protocol: as §1, §2
(§9) On the day of testing, primary cultures were started by scraping off 5-10 colonies from the TSAB plates containing clinical strains or the tetracycline supplemented LB plates containing engineered strains. […]
as §5, with “MIC values were defined as the lowest concentration producing no visible turbidity.” left out

[12] = tested on: Panel of Isogenic and Clinical Strains Expressing β-Lactamases; assay: Standard BLI Potentiation MIC Assay in Combination with Ceftolozane, whole panel; type: cell-based; settings: panel of 24 strains; BLI at 4 μg/mL
Protocol: as §1, §2, §3, §4
as §5, with “MIC values were defined as the lowest concentration producing no visible turbidity.” left out

Ecl.569 (AmpC, clinical) = assay: Standard BLI Potentiation MIC Assay in Combination with Ceftolozane; type: cell-based, Enterobacter spp; settings: Ecl.569, AmpC, clinical; BLI at 4 μg/mL
Protocol: as §1, §2, §9
as §5, with “MIC values were defined as the lowest concentration producing no visible turbidity.” left out

(2S,5R)-2-(5-(3-aminopropyl)-1,3,4-oxadiazol-2-yl)-7-oxo-1,6-diazabicyclo[3.2.1]octan-6-yl hydrogen sulfate [ψ]
D (D = 16-32 μg/mL): sMIC [7]
AA (AA = <0.25 μg/mL): MIC of Ceftolozane in combination with BLI [5] | MIC of Ceftolozane in combination with BLI [6]
A (A = 0.25-0.5 μg/mL): MIC of Ceftolozane in combination with BLI [2] | sMIC [8] | MIC of Ceftolozane in combination with BLI (Cfr.568 (AmpC, clinical)) | MIC50 of Ceftolozane in combination with BLI [12] | MIC of Ceftolozane in combination with BLI (Ecl.569 (AmpC, clinical))
B (B = 1-2 μg/mL): MIC of Ceftolozane in combination with BLI [1] | MIC of Ceftolozane in combination with BLI [3] | MIC of Ceftolozane in combination with BLI [4] | sMIC [9] | sMIC [10] | sMIC [11] | MIC90 of Ceftolozane in combination with BLI [12]
